Active and inactive are the calls of the source. No cut-off for these calls is given here.
Tests used:
[1] = organism: Homo sapiens; assay: Inhibitory effect on (HUVEC) human umbilical vein endothelial cell tube formation at a uM; not assayed; type: functional
[2] = organism: Homo sapiens; assay: Inhibitory effect on (HUVEC) human umbilical vein endothelial cell tube formation at a uM; ++ significant inhibition; type: functional
[3] = tested on: Mus musculus; assay: Antitumor efficacy against A549 human non -small cell lung carcinoma was tested in nude mice xenografts at 50 mg/kg on 14th day (i.p.); type: functional; details: route intraperitoneal
[4] = tested on: Mus musculus; assay: Antitumor efficacy against A549 human non -small cell lung carcinoma was tested in nude mice xenografts at 50 mg/kg on 25th day (i.p.); type: functional; details: route intraperitoneal
[5] = tested on: Mus musculus; assay: Antitumor efficacy against A549 human non -small cell lung carcinoma was tested in nude mice xenografts at 50 mg/kg on 35th day (i.p.); type: functional; details: route intraperitoneal
[6] = tested on: Mus musculus; assay: Antitumor efficacy against A549 human non -small cell lung carcinoma was tested in nude mice xenografts at 50 mg/kg on 45th day (i.p.); type: functional; details: route intraperitoneal
[7] = tested on: Mus musculus; assay: Antitumor efficacy against A549 human non -small cell lung carcinoma was tested in nude mice xenografts at 50 mg/kg on 61th day (i.p.); type: functional; details: route intraperitoneal
[8] = organism: Rattus norvegicus; assay: Vasorelaxant potency was measured by inhibition of […]-contracted rat aorta; type: functional
[9] = organism: Rattus norvegicus; assay: In vitro cardioprotective effect was evaluated by measuring the contractile function (LVDRxHR) at a concentration of 10 uM; type: functional, Heart
[10] = organism: Rattus norvegicus; assay: In vitro cardioprotective effect was evaluated by measuring the contractile function LDH at a concentration of 10 uM;not assayed; type: functional; details: Heart
[11] = organism: Rattus norvegicus; assay: In vitro cardioprotective effect was evaluated by measuring the contractile function EDP at a concentration of 10 uM; type: functional, Heart
[12] = tested on: Rattus norvegicus; assay: In vivo anti-infarction effect by measuring the ratio of myocardial infarct zone to area at risk (IZ/AAR) in ischemic myocardium damage rat model at 0.3 mg/Kg;not assayed; type: functional, organism-based
[13] = organism: Rattus norvegicus; assay: In vitro cardioprotective effect was evaluated by measuring the contractile function TTC at a concentration of 10 uM; type: functional, Heart
[14] = tested on: Mus musculus; assay: Antitumor efficacy against A549 human non -small cell lung carcinoma was tested in nude mice xenografts at 50 mg/kg on 1st day (i.p.); type: functional; details: route intraperitoneal
[15] = organism: Rattus norvegicus; assay: In vitro cardioprotective effect was evaluated by measuring the contractile function LDH at a concentration of 10 uM; type: functional, Heart
[16] = tested on: Rattus norvegicus; assay: In vivo anti-infarction effect by measuring the ratio of myocardial infarct zone to area at risk (IZ/AAR) in ischemic myocardium damage rat model at 0.3 mg/Kg; type: functional

COC(OC)[C@]1(C)Oc2ccc(N)cc2[C@H](N(Cc2ncc[nH]2)c2ccc(Cl)cc2)[C@H]1O
inhibition [1]: inactive

COC(OC)[C@]1(C)Oc2ccc([N+](=O)[O-])cc2[C@@H](N(Cc2ncc[nH]2)c2ccc(Cl)cc2)[C@@H]1O
inhibition [2]: Significant inhibition

COC(OC)[C@@]1(C)Oc2ccc(N)cc2[C@@H](N(Cc2ncc[nH]2)c2ccc(Cl)cc2)[C@@H]1O
inhibition [2]: Significant inhibition

COC(OC)[C@@]1(C)Oc2ccc(N)cc2[C@H](N(Cc2ncc[nH]2)c2ccc(Cl)cc2)[C@H]1O
inhibition [2]: Significant inhibition

COc1ccc(N(Cc2ncc[nH]2)[C@H]2c3cc(N)ccc3O[C@](C)(C(OC)OC)[C@@H]2O)cc1
inhibition [1]: inactive

COC(OC)[C@@]1(C)Oc2ccc(N)cc2[C@H](N(Cc2ncc[nH]2)c2ccc(OC(F)(F)F)cc2)[C@H]1O
inhibition [1]: inactive

COC(OC)[C@]1(C)Oc2ccc(N)cc2[C@@H](N(Cc2ncc[nH]2)c2ccc(Cl)cc2)[C@@H]1O
Body weight [3]: 25.42 g
inhibition in vivo at 50 mg/kg ([4]; A549, ip): 39.7%
Body weight [4]: 26.17 g
Tumor volume [4]: 92.2 mm**3
inhibition in vivo at 50 mg/kg ([5]; A549, ip): 39.5%
Body weight [5]: 27.1 g
Tumor volume [5]: 186.8 mm**3
inhibition in vivo at 50 mg/kg ([6]; A549, ip): 49.5%
Tumor volume [6]: 244.3 mm**3
inhibition in vivo at 50 mg/kg ([7]; A549, ip): 52.2%
Tumor volume [7]: 494.8 mm**3
IC50 [8]: > 30 µM
LV DRxHR [9]: 19.3%
LDH [10]: inactive
EDP [11]: 62.3 mmHg
IZ/AAR / AAR/LV [12]: inactive
TTC [13]: 23.5 min
Body weight [14]: 22.3 g

COC(OC)[C@]1(C)Oc2ccc([N+](=O)[O-])cc2[C@@H](N(Cc2ncc[nH]2)c2ccc(C(F)(F)F)cc2)[C@@H]1O
inhibition [1]: inactive

COC(OC)[C@@]1(C)Oc2ccc([N+](=O)[O-])cc2[C@@H](N(Cc2ncc[nH]2)c2ccc(Cl)cc2)[C@@H]1O
inhibition [2]: Significant inhibition
IC50 [8]: > 30 µM
LV DRxHR [9]: 55.7%
LDH [15]: 10.7 U g-1
EDP [11]: 14 mmHg
IZ/AAR / AAR/LV [16]: 41%
TTC [13]: 20.3 min

COC(OC)[C@]1(C)Oc2ccc([N+](=O)[O-])cc2[C@@H](N(Cc2ncc[nH]2)c2ccc(Br)cc2)[C@@H]1O
inhibition [1]: inactive

COC(OC)[C@]1(C)Oc2ccc([N+](=O)[O-])cc2[C@@H](N(Cc2ncc[nH]2)c2ccc(OC(F)(F)F)cc2)[C@@H]1O
inhibition [1]: inactive
